According to PubChem BioAssay (NCI):
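Where inhibition never reached the appropriate level, the endpoint shown equals the highest concentration tested. Otherwise, values were interpolated linearly from a five-concentration, 48-hour dose response in 96-well plates. GI50 marks 50% less growth. The concentration for full growth arrest is given as TGI.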

Experiments:
Assay in all cases: NCI-60 cell line screen, 48 h; in the data active = GI50 below about 0.43 µM; inactive = the rest
[1] = test system: 786-0 renal
[2] = test system: A498 renal
[3] = test system: A549 NSCLC
[4] = test system: ACHN renal
[5] = test system: BT-549 breast
[6] = test system: CAKI-1 renal
[7] = test system: CCRF-CEM leukemia
[8] = test system: COLO 205 colon
[9] = test system: DU-145 prostate
[10] = test system: EKVX NSCLC
[11] = test system: HCC-2998 colon
[12] = test system: HCT-116 colon
[13] = test system: HCT-15 colon
[14] = test system: HL-60(TB) leukemia
[15] = test system: HOP-62 NSCLC
[16] = test system: HOP-92 NSCLC
[17] = test system: HS 578T breast
[18] = test system: HT29 colon
[19] = test system: IGROV1 ovarian
[20] = test system: K-562 leukemia
[21] = test system: KM12 colon
[22] = test system: LOX IMVI melanoma
[23] = test system: M14 melanoma
[24] = test system: MALME-3M melanoma
[25] = test system: MCF7 breast
[26] = test system: MDA-MB-231 breast
[27] = test system: MDA-MB-435
[28] = test system: MOLT-4 leukemia
[29] = test system: NCI-H226 lung
[30] = test system: NCI-H23 lung
[31] = test system: NCI-H460 lung
[32] = test system: NCI-H522 lung
[33] = test system: NCI/ADR-RES ovarian
[34] = test system: OVCAR-3 ovarian
[35] = test system: OVCAR-4 ovarian
[36] = test system: OVCAR-5 ovarian
[37] = test system: OVCAR-8 ovarian
[38] = test system: PC-3 prostate
[39] = test system: RPMI-8226 leukemia
[40] = test system: RXF 393 renal
[41] = test system: SF-268 CNS
[42] = test system: SF-295 CNS
[43] = test system: SF-539 CNS
[44] = test system: SK-MEL-2 melanoma
[45] = test system: SK-MEL-28 melanoma
[46] = test system: SK-MEL-5 melanoma
[47] = test system: SK-OV-3 ovarian
[48] = test system: SN12C renal
[49] = test system: SNB-19 CNS
[50] = test system: SNB-75 CNS
[51] = test system: SR leukemia
[52] = test system: SW-620 colon
[53] = test system: T-47D breast
[54] = test system: TK-10 renal
[55] = test system: U251 CNS
[56] = test system: UACC-257 melanoma
[57] = test system: UACC-62 melanoma
[58] = test system: UO-31 renal
[59] = test system: MDA-N

CC1(C)CC(C)(C)c2cc(NC(=S)Nc3ccc([N+](=O)[O-])cc3)ccc2S1
> 53.9 µM: TGI [23]
68.5 µM: TGI [45]
27.2 µM: TGI [42]
60.4 µM: TGI [35] | TGI [37]
> 52.6 µM: TGI [53]
> 82.1 µM: TGI [25]
23.1 µM: TGI [44]
30.5 µM: TGI [27]
41.1 µM: TGI [7]
51.8 µM: TGI [40]
22.4 µM: TGI [38]
29.4 µM: TGI [55]
49.3 µM: TGI [36]
34.8 µM: TGI [21]
10.1 µM: TGI [24]
32.1 µM: TGI [6]
24.8 µM: TGI [54]
22.2 µM: TGI [48]
> 53.7 µM: TGI [41]
> 60 µM: TGI [20]
22.6 µM: TGI [26]
> 88.2 µM: TGI [51]
29.7 µM: TGI [10]
22.7 µM: TGI [43]
25 µM: TGI [57]
31.2 µM: TGI [34]
29 µM: TGI [19]
54.8 µM: TGI [47]
38.5 µM: TGI [29]
48.2 µM: TGI [33]
inactive: GI50 [1] 17 µM | GI50 [2] 9.16 µM | GI50 [3] 12.3 µM | GI50 [4] 10.1 µM | GI50 [5] 13.2 µM | GI50 [6] 11.5 µM | GI50 [7] 12.3 µM | GI50 [8] 13 µM | GI50 [9] 13.1 µM | GI50 [10] 12.7 µM | GI50 [11] 4.42 µM | GI50 [12] 14.9 µM | GI50 [13] 12.6 µM | GI50 [14] 30.2 µM | GI50 [15] 18.3 µM | GI50 [16] 19.1 µM | GI50 [17] 24.2 µM | GI50 [18] 24.1 µM | GI50 [19] 10.5 µM | GI50 [20] 10.8 µM | GI50 [21] 10.9 µM | GI50 [22] 12.4 µM | GI50 [23] 17.9 µM | GI50 [24] 2.62 µM | GI50 [25] 29.1 µM | GI50 [26] 10.8 µM | GI50 [27] 11.8 µM | GI50 [28] 19.1 µM | GI50 [29] 14.3 µM | GI50 [30] 12.2 µM | GI50 [31] 27.6 µM | GI50 [32] 9.63 µM | GI50 [33] 13.9 µM | GI50 [34] 9.75 µM | GI50 [35] 14.8 µM | GI50 [36] 14.2 µM | GI50 [37] 16.6 µM | GI50 [38] 9.69 µM | GI50 [39] 31 µM | GI50 [40] 17.9 µM | GI50 [41] 26.5 µM | GI50 [42] 10.8 µM | GI50 [43] 10.8 µM | GI50 [44] 10.5 µM | GI50 [45] 17.2 µM | GI50 [46] 9.23 µM | GI50 [47] 16.5 µM | GI50 [48] 10.3 µM | GI50 [49] 21 µM | GI50 [50] 16.7 µM | GI50 [51] 12.9 µM | GI50 [52] 15.6 µM | GI50 [53] 17.1 µM | GI50 [54] 10.3 µM | GI50 [55] 11.1 µM | GI50 [56] 13.6 µM | GI50 [57] 10.9 µM | GI50 [58] 12.4 µM
> 100 µM: TGI [12] | TGI [18] | TGI [28]
> 55.5 µM: TGI [1]
28.2 µM: TGI [5]
36.5 µM: TGI [16]
99.8 µM: TGI [39]
> 80.2 µM: TGI [52]
48.7 µM: TGI [50]
45.8 µM: TGI [13]
> 69.3 µM: TGI [31]
19.1 µM: TGI [2] | TGI [46]
50.7 µM: TGI [56]
24.6 µM: TGI [4] | TGI [11]
59.4 µM: TGI [8]
> 49.5 µM: TGI [15]
50.2 µM: TGI [30]
> 76.1 µM: TGI [49]
34.6 µM: TGI [9]
58.3 µM: TGI [17]
> 85.3 µM: TGI [14]
31.9 µM: TGI [22]
22.1 µM: TGI [32]
52.7 µM: TGI [3]
39.4 µM: TGI [58]

O=c1[nH]c(=O)n(COC(CO)CO)cc1-c1ccccc1
> 100 µM: TGI [1] | TGI [3] | TGI [4] | TGI [6] | TGI [7] | TGI [8] | TGI [9] | TGI [10] | TGI [11] | TGI [12] | TGI [13] | TGI [14] | TGI [15] | TGI [16] | TGI [17] | TGI [18] | TGI [19] | TGI [20] | TGI [21] | TGI [22] | TGI [23] | TGI [24] | TGI [25] | TGI [26] | TGI [27] | TGI [59] | TGI [28] | TGI [30] | TGI [31] | TGI [32] | TGI [33] | TGI [34] | TGI [35] | TGI [36] | TGI [37] | TGI [38] | TGI [39] | TGI [41] | TGI [42] | TGI [44] | TGI [45] | TGI [46] | TGI [47] | TGI [48] | TGI [49] | TGI [50] | TGI [51] | TGI [52] | TGI [53] | TGI [54] | TGI [55] | TGI [56] | TGI [57] | TGI [58]
